The values below come from patent US4929612A, “Thiadiazolylacetamide cephem derivatives” (Eisai Co., Ltd., priority 1987, dated 1990).

In brackets after ≈: the same amount, converted by molar mass. Like-named read-outs stand apart in the source and are kept apart here. Some results are limits rather than exact numbers.

One data set has as its system Escher. coli NIHJ. Nature of the data set: anti-bacterial activity, MIC, Escher. coli NIHJ. In kind it is cell-based. The conditions noted are these: Escherichia coli, inoculum size 10^6 CFU/ml. The text has this: (§1) Test bacterium MIC (μg/ml) Inoculum size 10^6 CFU/ml
The next data set has as its system Ser. marcescens ES-75. Kind of data set: anti-bacterial activity, MIC, Ser. marcescens ES-75. In kind it is cell-based. The conditions noted are these: Serratia marcescens, ES75.
Text: as §1

The test system of a further data set is Kleb. pneumoniae EK-6. Nature of the data set: anti-bacterial activity, MIC, Kleb. pneumoniae EK-6. In kind it is cell-based. The conditions noted are these: Klebsiella pneumoniae, EK6.
Text: as §1

Another data set relates to Staph. aureus 209-P. Nature of the data set: anti-bacterial activity, MIC, Staph. aureus 209-P. In kind it is cell-based. The conditions noted are these: Staphylococcus aureus, inoculum size 10^6 CFU/ml.
Text: as §1

Data set [1] concerns Morganella morganii EP-14. Kind of data set: anti-bacterial activity, MIC, Morganella morganii EP-14. In kind it is cell-based. The conditions noted are these: EP14, inoculum size 10^6 CFU/ml.
Text: as §1

In the next data set the test system is Pseud. aeruginosa EP-01. Nature of the data set: anti-bacterial activity, MIC, Pseud. aeruginosa EP-01. In kind it is cell-based. To be noted: Pseudomonas aeruginosa, EP01, inoculum size 10^6 CFU/ml.
Text: as §1

Data set [2] in a line: Acute toxicity, LD50 (mouse, intravenous injection). To be noted: in vivo. The source says: Acute toxicity [LD50 (mouse, intravenous injection)] of the following compounds was more than 3 g/kg, respectively.
[3] abbreviates: Ser. marcescens ES-75, inoculum size 10^6 CFU/ml, read-out: MIC.
Setting [4] is: Kleb. pneumoniae EK-6, inoculum size 10^6 CFU/ml, read-out: MIC.

As a reminder, the MIC is the lowest concentration found to suppress growth. For `Nc1nc(/C(=N/OCF)C(=O)N[C@@H]2C(=O)N3C(C(=O)[O-])=C(C[n+]4ccc5n4CCCC5)CS[C@H]23)ns1` [Example 10, 7β-[2-(5-Amino-1,2,4-thiadiazol-3-yl)-(Z)-2-fluoromethoxyiminoacetamido]-3-[1-(2,3-tetramethylene)pyrazolio]methyl-3-cephem-4-carboxylate], the minimal inhibitory concentration (MIC) against Escher. coli NIHJ is at most 0.025 µg/mL; with Ser. marcescens ES-75 (setting [3]), 0.05 µg/mL (≈ 0.0932 µM); in the data set on Kleb. pneumoniae EK-6 (setting [4]) it was at most 0.025 µg/mL; with Staph. aureus 209-P it was 0.4 µg/mL (≈ 0.745 µM); in data set [1] it was 0.05 µg/mL (≈ 0.0932 µM); against Pseud. aeruginosa EP-01, 0.8 µg/mL (≈ 1.49 µM).
For `Nc1nc(/C(=N/OCF)C(=O)N[C@@H]2C(=O)N3C(C(=O)[O-])=C(C[n+]4ccc5n4CCOC5)CS[C@H]23)ns1` [Example 8, 7β-[2-(5-Amino-1,2,4-thiadiazol-3-yl)-(Z)-2-fluoromethoxyiminoacetamido]-3-[1-morpholino-[4,3-b]pyrazolio]methyl-3-cephem-4-carboxylate], the MIC is at most 0.025 µg/mL in the data set on Escher. coli NIHJ; 0.05 µg/mL (≈ 0.0928 µM) in the data set with Ser. marcescens ES-75 (setting [3]); 0.05 µg/mL (≈ 0.0928 µM) in the data set on Kleb. pneumoniae EK-6 (setting [4]); 0.4 µg/mL (≈ 0.743 µM) against Staph. aureus 209-P; 0.05 µg/mL (≈ 0.0928 µM) in data set [1]; 0.8 µg/mL (≈ 1.49 µM) against Pseud. aeruginosa EP-01.
For `Nc1nc(/C(=N/OCF)C(=O)N[C@@H]2C(=O)N3C(C(=O)[O-])=C(C[N+](CCO)(CCO)CCO)CS[C@H]23)ns1` [Example 7, 7β-[2-(5-Amino-1,2,4-thiadiazol-3-yl)-(Z)-2-fluoromethoxyiminoacetamido]-3-[tris(2-hydroxyethyl)ammonio]methyl-3-cephem-4-carboxylate], the minimum inhibitory concentration (MIC) amounted to 0.1 µg/mL (≈ 0.177 µM) in the data set with Escher. coli NIHJ; 0.4 µg/mL (≈ 0.71 µM) in the data set on Ser. marcescens ES-75 (setting [3]); 0.1 µg/mL (≈ 0.177 µM) in the data set with Kleb. pneumoniae EK-6 (setting [4]); 6.25 µg/mL (≈ 11.1 µM) against Staph. aureus 209-P; 0.1 µg/mL (≈ 0.177 µM) in data set [1]; 3.13 µg/mL (≈ 5.55 µM) against Pseud. aeruginosa EP-01.
Take `Nc1nc(/C(=N/OCF)C(=O)N[C@@H]2C(=O)N3C(C(=O)[O-])=C(C[n+]4cccn4CCO)CS[C@H]23)ns1` [Example 9, 7β-[2-(5-Amino-1,2,4-thiadiazol-3-yl)-(Z)-2-fluoromethoxyiminoacetamido]-3-[2-(2-hydroxyethyl)-1-pyrazolio]methyl-3-cephem-4-carboxylate]: the minimal inhibitory concentration (MIC) with Escher. coli NIHJ came out at 0.05 µg/mL (≈ 0.095 µM); in the data set with Ser. marcescens ES-75 (setting [3]), 0.05 µg/mL (≈ 0.095 µM); in the data set on Kleb. pneumoniae EK-6 (setting [4]), 0.05 µg/mL (≈ 0.095 µM); in the data set with Staph. aureus 209-P, 0.4 µg/mL (≈ 0.76 µM); in data set [1] it was 0.05 µg/mL (≈ 0.095 µM); in the data set with Pseud. aeruginosa EP-01, 0.8 µg/mL (≈ 1.52 µM).
As to `C[N+]1(CC2=C(C(=O)[O-])N3C(=O)[C@@H](NC(=O)/C(=N\OCF)c4nsc(N)n4)[C@H]3SC2)CC=C(C(N)=O)CC1` (stereo partly drawn) [Example 6, 7β-[2-(5-Amino-1,2,4-thiadiazol-3-yl)-(Z)-2-fluoromethoxyiminoacetamido]-3-(4-carbamoyl-1-methyl-1,2,3,6-tetrahydropyridinio)methyl-3-cephem-4-carboxylate], the minimum inhibitory concentration (MIC) was 0.05 µg/mL (≈ 0.0902 µM) in the data set with Escher. coli NIHJ; 0.1 µg/mL (≈ 0.18 µM) with Ser. marcescens ES-75 (setting [3]); 0.05 µg/mL (≈ 0.0902 µM) with Kleb. pneumoniae EK-6 (setting [4]); 1.56 µg/mL (≈ 2.81 µM) in the data set with Staph. aureus 209-P; 0.05 µg/mL (≈ 0.0902 µM) in data set [1]; 0.8 µg/mL (≈ 1.44 µM) in the data set on Pseud. aeruginosa EP-01.
Regarding `C[N+]1(CC2=C(C(=O)[O-])N3C(=O)[C@@H](NC(=O)/C(=N\OCF)c4nsc(N)n4)[C@H]3SC2)CCCC1` [Example 4, 7β-[2-(5-Amino-1,2,4-thiadiazol-3-yl)-(Z)-2-fluoromethoxyiminoacetamido]-3-(1-methyl-1-pyrrolidinio)methyl-3-cephem-4-carboxylate], the MIC in the data set with Escher. coli NIHJ is at most 0.025 µg/mL; in the data set with Ser. marcescens ES-75 (setting [3]), 0.05 µg/mL (≈ 0.1 µM); with Kleb. pneumoniae EK-6 (setting [4]), 0.05 µg/mL (≈ 0.1 µM); against Staph. aureus 209-P it was 0.8 µg/mL (≈ 1.6 µM); in data set [1], at most 0.025 µg/mL; in the data set on Pseud. aeruginosa EP-01, 0.8 µg/mL (≈ 1.6 µM).
In general, LD50 refers to the dose expected to kill half of the subjects tested. The low end stands for a more toxic substance, the high end for a less toxic substance. For the compound `Nc1nc(/C(=N/OCF)C(=O)N[C@@H]2C(=O)N3C(C(=O)[O-])=C(C[N+]45CCC(O)(CC4)C5)CS[C@H]23)ns1` [Example 3, 7β-[2-(5-Amino-1,2,4-thiadiazol-3-yl)-(Z)-2-fluoromethoxyiminoacetamido]-3-(4-hydroxy-1,4-methylene-1-piperidinio)methyl-3-cephem-4-carboxylate], the MIC came to 0.05 µg/mL (≈ 0.0948 µM) against Escher. coli NIHJ; 0.1 µg/mL (≈ 0.19 µM) in the data set on Ser. marcescens ES-75 (setting [3]); 0.1 µg/mL (≈ 0.19 µM) against Kleb. pneumoniae EK-6; 0.4 µg/mL (≈ 0.758 µM) with Staph. aureus 209-P; 0.05 µg/mL (≈ 0.0948 µM) in data set [1]; 0.8 µg/mL (≈ 1.52 µM) in the data set with Pseud. aeruginosa EP-01. The compound also showed a 50% lethal dose (LD50) in data set [2] of over 3000 mg/kg.
As to `Nc1nc(/C(=N/OCF)C(=O)N[C@@H]2C(=O)N3C(C(=O)[O-])=C(C[N+]45CCC(CO)(CC4)CC5)CS[C@H]23)ns1` [Example 11, 7β-[2-(5-Amino-1,2,4-thiadiazol-3-yl)-(Z)-2-fluoromethoxyiminoacetamido]-3-(4-hydroxylmethyl-1-quinuclidinio)methyl-3-cephem-4-carboxylate], the MIC with Escher. coli NIHJ was at most 0.025 µg/mL; with Ser. marcescens ES-75 (setting [3]) it was 0.1 µg/mL (≈ 0.18 µM); in the data set on Kleb. pneumoniae EK-6 (setting [4]), at most 0.025 µg/mL; against Staph. aureus 209-P it was 0.8 µg/mL (≈ 1.44 µM); in data set [1], at most 0.025 µg/mL; against Pseud. aeruginosa EP-01 it was 0.4 µg/mL (≈ 0.72 µM). The compound further came in with a 50% lethal dose (LD50) in data set [2] of over 3000 mg/kg.
As to `CC12CC[N+](CC3=C(C(=O)[O-])N4C(=O)[C@@H](NC(=O)/C(=N\OCF)c5nsc(N)n5)[C@H]4SC3)(CC1)CC2` [Example 2, 7β-[2-(5-Amino-1,2,4-thiadiazol-3-yl)-(Z)-2-fluoromethoxyiminoacetamido]-3-(4-methyl-1-quinuclidinio)methyl-3-cephem-4-carboxylate], the minimal inhibitory concentration (MIC) in the data set on Escher. coli NIHJ came to 0.05 µg/mL (≈ 0.0927 µM); against Ser. marcescens ES-75 it was 0.1 µg/mL (≈ 0.185 µM); with Kleb. pneumoniae EK-6 (setting [4]) it was 0.05 µg/mL (≈ 0.0927 µM); in the data set with Staph. aureus 209-P, 0.8 µg/mL (≈ 1.48 µM); in data set [1] it was 0.1 µg/mL (≈ 0.185 µM); in the data set with Pseud. aeruginosa EP-01 it was 0.8 µg/mL (≈ 1.48 µM).
Take `NC(=O)C12CC[N+](CC3=C(C(=O)[O-])N4C(=O)[C@@H](NC(=O)/C(=N\OCF)c5nsc(N)n5)[C@H]4SC3)(CC1)CC2` [Example 1, 7β-[2-(5-Amino-1,2,4-thiadiazol-3-yl)-(Z)-2-fluoromethoxyiminoacetamido]-3-(4-carbamoyl-1-quinuclidinio)methyl-3-cephem-4-carboxylate]: the MIC against Escher. coli NIHJ amounted to 0.05 µg/mL (≈ 0.0879 µM); in the data set with Ser. marcescens ES-75 (setting [3]), 0.1 µg/mL (≈ 0.176 µM); in the data set with Kleb. pneumoniae EK-6 (setting [4]) it was 0.05 µg/mL (≈ 0.0879 µM); with Staph. aureus 209-P, 1.56 µg/mL (≈ 2.74 µM); in data set [1], 0.05 µg/mL (≈ 0.0879 µM); in the data set with Pseud. aeruginosa EP-01, 0.4 µg/mL (≈ 0.703 µM). In data set [2], this compound returned an LD50 of over 3000 mg/kg.
Regarding `C[N+](C)(CCC(N)=O)CC1=C(C(=O)[O-])N2C(=O)[C@@H](NC(=O)/C(=N\OCF)c3nsc(N)n3)[C@H]2SC1` [Example 5, 7β-[2-(5-Amino-1,2,4-thiadiazol-3-yl)-(Z)-2-fluoromethoxyiminoacetamido]-3-[N,N-dimethyl-N-(2-carbamoyl)ethylammonio]methyl-3-cephem-4-carboxylate], the minimal inhibitory concentration (MIC) in the data set on Escher. coli NIHJ is at most 0.025 µg/mL; in the data set with Ser. marcescens ES-75, 0.1 µg/mL (≈ 0.188 µM); with Kleb. pneumoniae EK-6 (setting [4]) it was at most 0.025 µg/mL; in the data set with Staph. aureus 209-P, 1.56 µg/mL (≈ 2.94 µM); in data set [1] it was 0.05 µg/mL (≈ 0.0942 µM); in the data set with Pseud. aeruginosa EP-01, 1.56 µg/mL (≈ 2.94 µM).
